Test results reported in patent publication US11464770B2, “Anticancer pharmaceutical composition” (NATIONAL CANCER CENTER, priority 2016, dated 2022).
Where two headings read alike, the source gives them in different places.

Legend:
[1] = tested on: pancreatic cancer cell lines (e.g. MIA PaCa-2); experiment: Cell based assay, cell viability (CellTiter-Glo), pancreatic cancer cell lines; conditions: Homo sapiens
Summary of the method: (§1)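 ATP content as viability surrogate, luminescent read; 72 h compound, 0–2 μM final; cells plated 24 h prior.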

brain cancer cell lines = experiment: Cell based assay, cell viability (CellTiter-Glo), brain cancer cell lines; conditions: Homo sapiens
neuroblastoma cell lines = experiment: Cell based assay, cell viability (CellTiter-Glo), neuroblastoma cell lines; conditions: Homo sapiens; SH-SY5Y cell line
Summary of the method: as §1

renal cancer cell lines = experiment: Cell based assay, cell viability (CellTiter-Glo), renal cancer cell lines; conditions: Homo sapiens; ACHN cells
Summary of the method: as §1

zebrafish = experiment: Cardiotoxicity experiment using zebrafish (heart rate, lethality); assay type: in vivo; conditions: 5 uM, n = 10
[2] = Cell based assay, cytotoxicity in RT4 papilloma cells (selectivity); set-up: species or system human; conditions: human; RT4 cells (benign), 72 hours
[3] = tested on: MBT-2: Mouse bladder transitional cell carcinoma; experiment: Cell based assay, cytotoxicity in MBT-2 cells; conditions: 72 hours
Protocol: (§2) Commercially available bladder cancer, prostate cancer, lung cancer, breast cancer, blood cancer, pancreatic cancer, colorectal cancer, brain cancer, neuroblastoma, melanoma, liver cancer, cervical carcinoma, ovarian cancer, renal cancer, and papilloma cell lines were each treated with trypsin-EDTA and cultured, followed by being seeded in each well of a 96 well plate. After 24 hours of treatment at constant temperature, the respective cells were treated with the candidate compound so that a final concentration became 0 to 2 μM. The treated cells were additionally cultured for 72 hours, and cell viability was measured by using an ATP detection method (CellTiter-Glo® Luminescent Cell Viability Assay, Promega).

[4] = tested on: KU-19-19: Bladder carcinoma; experiment: Cell based assay, cytotoxicity in KU19-19 cells; conditions: Homo sapiens, 72 hours
Protocol: as §2

[5] = tested on: UM-UC-3: human urinary bladder transitional cell carcinoma; experiment: Cell based assay, cytotoxicity in UM-UC-3 cells; conditions: UMUC3, 72 hours
Protocol: as §2

[6] = tested on: human lung cancer cell line (NCI-H1299); experiment: Tumor growth inhibition in animal model using NCI-H1299; assay type: in vivo; conditions: intraperitoneally administered three times a week, NCI-H1299 animal model (FIG. 1)
[7] = tested on: human prostate cancer cell line (DU145); experiment: Tumor growth inhibition in animal model using DU145; assay type: in vivo; conditions: intraperitoneally administered twice a week, DU145 animal model (FIG. 2)
[8] = pancreatic cancer cell line AsPC-1, 72 hours, read-out: IC50, AsPC-1
[9] = pancreatic cancer cell line BxPC-3, 72 hours, read-out: IC50, BxPC-3
[10] = pancreatic cancer cell line CFPAC-1, 72 hours, read-out: IC50, CFPAC-1
[11] = pancreatic cancer cell line Capan-1, 72 hours, read-out: IC50, Capan-1
[12] = pancreatic cancer cell line Capan-2, 72 hours, read-out: IC50, Capan-2
[13] = pancreatic cancer cell line MIA PaCa-2, 72 hours, read-out: IC50, MIA PaCa-2
[14] = pancreatic cancer cell line PANC-1, 72 hours, read-out: IC50, PANC-1
[15] = U138-MG, U-138 MG cell line, read-out: IC50, Brain cancer cell line U-138 MG
[16] = T98G cell line, read-out: IC50, Brain cancer cell line T98G
[17] = U-251 MG cell line, read-out: IC50, Brain cancer cell line U-251 MG

| Compound | IC50 [1, 8] [nM] | IC50 [1, 9] [nM] | IC50 [1, 10] [nM] | IC50 [1, 11] [nM] | IC50 [1, 12] [nM] | IC50 [1, 13] [nM] | IC50 [1, 14] [nM] | IC50 (brain cancer cell lines; [15]) [nM] | IC50 (brain cancer cell lines; [16]) [nM] | IC50 (brain cancer cell lines; [17]) [nM] | IC50 (neuroblastoma cell lines) [nM] | IC50 (renal cancer cell lines) [nM] | Changes (%) in heart rate (zebrafish; mean) [%] | Lethality (zebrafish) | IC50 at 72 h [2] [µM] | IC50 [3] [µM] | IC50 [4] [µM] | IC50 [5] [µM] | Effect of inhibiting tumor growth [6] | Effect of inhibiting tumor growth [7] |
| --- | --- | --- | --- | --- | --- | --- | --- | --- | --- | --- | --- | --- | --- | --- | --- | --- | --- | --- | --- | --- |
| CC(=O)c1c([S+]([O-])Cc2ccc([N+](=O)[O-])cc2)[nH]c2c(Br)ccc(Cl)c2c1=O (centres unmarked) [Compound 33, 3-acetyl-8-bromo-5-chloro-2-((4-nitrobenzyl)sulfinyl)quinolin-4(1H)-one] | > 2000 | > 2000 | > 10000 | > 2000 | > 2000 | 1040 | > 2000 | > 2000 | > 10000 | 1110 | > 2000 | > 2000 | 97.3 | 0/10 |  |  |  |  |  |  |
| CC(=O)c1c([S+]([O-])Cc2ccc(I)cc2)[nH]c2c(Cl)ccc(Cl)c2c1=O (centres unmarked) [Compound 83, 3-acetyl-5,8-dichloro-2-((4-iodobenzyl)sulfinyl)quinolin-4(1H)-one] | > 2000 | > 2000 | > 10000 | > 2000 | > 2000 | 1440 | > 2000 | > 2000 | > 2000 | 1350 | 1240 | > 2000 |  |  |  |  |  |  |  |  |
| CC(=O)c1c([S+]([O-])Cc2ccc(SC(F)(F)F)cc2)[nH]c2c(Br)ccc(Cl)c2c1=O (centres unmarked) [Compound 56, 3-acetyl-8-bromo-5-chloro-2-((4-((trifluoromethyl)thio)benzyl)sulfinyl)quinolin-4(1H)-one] | > 2000 | > 2000 | > 10000 | > 2000 | > 2000 | 1370 | > 2000 | 1340 | > 10000 | 1170 | > 2000 | > 2000 |  |  | > 10 | 1.18 | 0.9 | 1.25 | effect of inhibiting tumor growth | effect of inhibiting tumor growth |
| CC(=O)c1c([S+]([O-])Cc2ccc(OC(F)(F)F)cc2)[nH]c2c(Br)ccc(Cl)c2c1=O (centres unmarked) [Compound 71, 3-acetyl-8-bromo-5-chloro-2-((4-(trifluoromethoxy)benzyl)sulfinyl)quinolin-4(1H)-one] | > 2000 | > 2000 | > 10000 | > 2000 | > 2000 | 1650 | > 2000 | > 2000 | > 10000 | > 2000 | > 2000 | > 2000 |  |  |  |  |  |  |  |  |
| CC(=O)c1c([S+]([O-])Cc2ccc(C(C)(C)C)cc2)[nH]c2c(Br)ccc(Cl)c2c1=O (centres unmarked) [Compound 60, 3-acetyl-8-bromo-2-((4-(tert-butyl)benzyl)sulfinyl)-5-chloroquinolin-4(1H)-one] | > 2000 | > 2000 | > 10000 | > 2000 | > 2000 | > 2000 | > 2000 | > 2000 | > 10000 | > 2000 | > 2000 | > 2000 |  |  |  |  |  |  |  |  |
| Cc1cc(C[S+]([O-])c2[nH]c3c(Br)ccc(Cl)c3c(=O)c2C(=O)C(C)C)no1 (centres unmarked) [Compound 95, 8-bromo-5-chloro-3-isobutyryl-2-(((5-methylisoxazol-3-yl)methyl)sulfinyl)quinolin-4(1H)-one] | 1060 | > 2000 | > 10000 | 1250 | > 2000 | 590 | > 2000 | 1010 | > 10000 | 610 | 480 | 1190 |  |  |  |  |  |  |  |  |
